# Measured values as given in patent US20240018153A1, “BENZENESULFONAMIDE DERIVATIVES AND USES THEREOF” (2692372 ONTARIO, INC., priority 2020, published 2024).
# Tests used:
# [1] = target: T1, EGFR (Homo sapiens (Human), UniProt P00533); test: A549 cell lysis and immunoassay, phospho-EGFR (Y1068) inhibition; type: cell-based; design: key: X: EGFR bound and autophosphoration of EGFR inhibited in cells; settings: A549 cells
# Experimental: (§1) A549 cells (ATCC) were cultured in Dulbecco's Modified Eagle's Medium (DMEM) (Wisent) supplemented with 10% FBS and 1% penicillin/streptomycin. Cells were seeded in 6-well plates at 530,000 cells/well and incubated at 37° C., 5% CO2 for 16 hours. Cells were starved in DMEM containing 1% FBS for 4 hours before they were treated with the indicated concentrations of compound or DMSO alone and incubated at 37° C., 5% CO2 for 24 hours. Prior to cell harvest and lysis, 50 ng/ml human epidermal growth factor (hEGF) (Sigma) was added to the cells and incubated at 37° C., 5% CO2 for 10 minutes. Conditioned media was discarded, and adherent cells were washed with PBS before they were scraped on ice. Cell suspensions were centrifugated at 2,000 RPM for 5 minutes at 4° C. and supernatants were discarded. Cell pellets were resuspended with 1× RIPA buffer (Millipore) and incubated on ice for 15 minutes. Protein lysates were extracted by centrifugating at 20,000 RPM for 20 minutes at 4° C. Proteins were separated and total EGFR protein levels were quantified by Simple Western Immunoassay (ProteinSimple) using the Protein Normalization Assay Module for Jess according to the manufacturer's protocol, using a protein concentration of 0.125 μg/μl and an antibody targeting EGFR (clone #EP38Y, Abcam) diluted to 1:400. Phosphorylated EGFR protein levels were quantified with the same assay using a protein concentration of 1 μg/μl and an antibody targeting pEGFR (Y1068) (Cell Signalling) diluted to 1:25. EGFR and phosphorylated EGFR levels were normalized to the Jess Protein Normalization Reagent loading control and subsequently to the DMSO control.
# [2] = target: T1, EGFR; test: A549 cell lysis and immunoassay, total EGFR degradation; type: cell-based; design: key: Y: EGFR bound in cells and EGFR degradation occurred; settings: A549 cells
# Experimental: as §1
# [3] = target: RIPK2 (Homo sapiens (Human), UniProt O43353); test: In vitro RIPK2 inhibition; type: biochemical; settings: for remaining activity at 1 µM: read-out: % RIPK2 Remaining activity vs DMSO (1 μM, 3 h); for remaining activity at 10 µM: read-out: % RIPK2 Remaining activity vs DMSO (10 μM, 3 h)
# [4] = compound concentration 10, 24 h
# RIPK2, sequence (O43353 whole entry, species assumed): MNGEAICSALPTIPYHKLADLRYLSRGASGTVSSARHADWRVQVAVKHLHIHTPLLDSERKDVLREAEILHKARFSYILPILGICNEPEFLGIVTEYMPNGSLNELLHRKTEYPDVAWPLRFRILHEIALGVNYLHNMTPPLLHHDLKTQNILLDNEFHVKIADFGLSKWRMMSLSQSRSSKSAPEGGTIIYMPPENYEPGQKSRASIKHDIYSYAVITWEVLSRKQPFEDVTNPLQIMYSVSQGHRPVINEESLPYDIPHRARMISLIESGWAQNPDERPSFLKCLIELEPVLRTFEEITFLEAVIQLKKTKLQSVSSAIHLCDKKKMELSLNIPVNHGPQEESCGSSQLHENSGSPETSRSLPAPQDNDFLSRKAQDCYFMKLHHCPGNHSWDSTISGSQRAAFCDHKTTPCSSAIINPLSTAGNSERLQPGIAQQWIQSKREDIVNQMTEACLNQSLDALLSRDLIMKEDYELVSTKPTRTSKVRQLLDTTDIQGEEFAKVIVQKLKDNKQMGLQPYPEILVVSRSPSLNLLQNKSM
# T1 sequence (P00533 25-1210): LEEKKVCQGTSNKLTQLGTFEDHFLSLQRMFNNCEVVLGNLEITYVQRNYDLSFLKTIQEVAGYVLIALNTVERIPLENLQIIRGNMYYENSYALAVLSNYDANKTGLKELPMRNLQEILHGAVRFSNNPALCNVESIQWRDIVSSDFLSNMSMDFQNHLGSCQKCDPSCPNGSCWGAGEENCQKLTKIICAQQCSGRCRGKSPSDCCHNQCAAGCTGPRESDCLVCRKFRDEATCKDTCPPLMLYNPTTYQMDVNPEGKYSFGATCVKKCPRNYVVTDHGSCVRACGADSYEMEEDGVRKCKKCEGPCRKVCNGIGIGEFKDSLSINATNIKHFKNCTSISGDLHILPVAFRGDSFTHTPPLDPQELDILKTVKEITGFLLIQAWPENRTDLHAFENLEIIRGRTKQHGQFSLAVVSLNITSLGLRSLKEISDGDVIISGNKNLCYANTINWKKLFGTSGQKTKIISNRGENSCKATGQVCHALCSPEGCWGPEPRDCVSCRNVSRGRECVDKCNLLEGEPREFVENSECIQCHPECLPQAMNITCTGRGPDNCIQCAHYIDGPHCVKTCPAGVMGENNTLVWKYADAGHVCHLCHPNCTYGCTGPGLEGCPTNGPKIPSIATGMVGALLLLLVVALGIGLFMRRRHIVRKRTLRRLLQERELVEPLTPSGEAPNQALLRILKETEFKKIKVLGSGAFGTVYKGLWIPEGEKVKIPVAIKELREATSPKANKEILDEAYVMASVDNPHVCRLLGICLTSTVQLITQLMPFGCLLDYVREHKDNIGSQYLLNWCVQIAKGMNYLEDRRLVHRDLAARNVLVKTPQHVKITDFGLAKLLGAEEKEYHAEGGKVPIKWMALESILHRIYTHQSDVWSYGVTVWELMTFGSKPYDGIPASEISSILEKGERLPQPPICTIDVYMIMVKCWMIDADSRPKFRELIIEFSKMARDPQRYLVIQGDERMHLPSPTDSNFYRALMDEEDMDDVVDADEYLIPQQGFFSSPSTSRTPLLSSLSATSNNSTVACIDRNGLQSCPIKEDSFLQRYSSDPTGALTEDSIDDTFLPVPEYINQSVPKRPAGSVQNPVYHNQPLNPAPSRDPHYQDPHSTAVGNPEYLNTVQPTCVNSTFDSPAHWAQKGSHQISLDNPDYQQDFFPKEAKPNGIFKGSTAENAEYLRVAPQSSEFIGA
"pEGFR inhibition (A549, 1 μM, 24 h) [1]","pEGFR inhibition (A549, compound concentration, 24 h) ([1]; compound concentration 10 μM)","EGFR degradation (A549, 1 μM, 24 h) [2]","EGFR degradation (A549, compound concentration, 24 h) [2, 4]",remaining activity at 1 µM [3],remaining activity at 10 µM [3],"pEGFR inhibition (A549, compound concentration, 24 h) ([1]; compound concentration 5 μM)","EGFR degradation (A549, compound concentration, 24 h) ([2]; compound concentration 5, 24 h)",Compound
X,,Y,Y,,,,,"COCCOc1ccc(Nc2ncc(F)c(Nc3cccc(NC(=O)c4c(F)c(F)c(F)c(F)c4[S@+](C)[O-])c3)n2)cc1 (stereo in doubt) [Compound I-62, 2,3,4,5-tetrafluoro-N-(3-((5-fluoro-2-((4-(2-methoxyethoxy)phenyl)amino)pyrimidin-4-yl)amino)phenyl)-6-(methylsulfinyl)benzamide]"
X,X,Y,Y,,,,,"COCCOc1ccc(Nc2ncc(F)c(Nc3cccc(Nc4c(F)c(F)c(F)c(F)c4[S@+](C)[O-])c3)n2)cc1 (stereo in doubt) [Compound I-63, 5-fluoro-N^2-(4-(2-methoxyethoxy)phenyl)-N^4-(3-((2,3,4,5-tetrafluoro-6-(methylsulfinyl)phenyl)amino)phenyl)pyrimidine-2,4-diamine]"
X,X,Y,,< 50%,< 50%,,Y,"COCCOc1ccc(Nc2ncc(F)c(Nc3cccc(NC(=O)c4c(F)c(F)c(F)c(F)c4S(=O)(=O)N(C)C)c3)n2)cc1 [Compound I-59, 2-(N,N-dimethylsulfamoyl)-3,4,5,6-tetrafluoro-N-(3-((5-fluoro-2-((4-(2-methoxyethoxy)phenyl)amino)pyrimidin-4-yl)amino)phenyl)benzamide]"
X,,Y,Y,,,,,"COCCOc1ccc(Nc2ncc(F)c(Nc3cccc(NC(=O)c4c(F)c(F)c(F)c(F)c4S(C)(=O)=O)c3)n2)cc1 [Compound I-61, 2,3,4,5-tetrafluoro-N-(3-((5-fluoro-2-((4-(2-methoxyethoxy)phenyl)amino)pyrimidin-4-yl)amino)phenyl)-6-(methylsulfonyl)benzamide]"
X,,Y,Y,,,,,"COCCOc1ccc(Nc2ncc(F)c(Nc3cccc(Nc4c(F)c(F)c(F)c(F)c4S(C)(=O)=O)c3)n2)cc1 [Compound I-64, 5-fluoro-N^2-(4-(2-methoxyethoxy)phenyl)-N^4-(3-((2,3,4,5-tetrafluoro-6-(methylsulfonyl)phenyl)amino)phenyl)pyrimidine-2,4-diamine]"

# Further lines, the compound ahead of its results:
Compound,"pEGFR inhibition (A549, 1 μM, 24 h) [1]","pEGFR inhibition (A549, compound concentration, 24 h) ([1]; compound concentration 10 μM)","EGFR degradation (A549, 1 μM, 24 h) [2]","EGFR degradation (A549, compound concentration, 24 h) [2, 4]",remaining activity at 1 µM [3],remaining activity at 10 µM [3],"pEGFR inhibition (A549, compound concentration, 24 h) ([1]; compound concentration 5 μM)","EGFR degradation (A549, compound concentration, 24 h) ([2]; compound concentration 5, 24 h)"
"C[S@+]([O-])c1c(F)c(F)c(F)c(F)c1C(=O)Nc1ncnc2[nH]ccc12 (racemic) [Compound I-46, 2,3,4,5-tetrafluoro-6-(methylsulfinyl)-N-(7H-pyrrolo[2,3-d]pyrimidin-4-yl)benzamide]",X,X,Y,Y,< 50%,50 to 90%,,
"CS(=O)(=O)c1c(F)c(F)c(F)c(F)c1C(=O)Nc1cc2c(Nc3ccc(F)c(Cl)c3)ncnc2cc1O[C@H]1CCOC1 [Compound I-5, (S)—N-(4-((3-chloro-4-fluorophenyl)amino)-7-((tetrahydrofuran-3-yl)oxy)quinazolin-6-yl)-2,3,4,5-tetrafluoro-6-(methylsulfonyl)benzamide]",X,X,Y,Y,,,,
"C[S+]([O-])c1c(F)c(F)c(F)c(F)c1C(=O)N1CCC[C@@H](n2nc(-c3ccc(Oc4ccccc4)cc3)c3c(N)ncnc32)C1 (stereo partly drawn) [Compound I-36, ((R)-3-(4-amino-3-(4-phenoxyphenyl)-1H-pyrazolo[3,4-d]pyrimidin-1-yl)piperidin-1-yl)(2,3,4,5-tetrafluoro-6-(methylsulfinyl)phenyl)methanone]",X,X,Y,Y,> 90%,> 90%,,
"CS(=O)(=O)c1c(F)c(F)c(F)c(F)c1C(=O)NCCCn1nc(-c2ccc(Oc3ccccc3)cc2)c2c(N)ncnc21 [Compound I-39, N-(3-(4-amino-3-(4-phenoxyphenyl)-1H-pyrazolo[3,4-d]pyrimidin-1-yl)propyl)-2,3,4,5-tetrafluoro-6-(methylsulfonyl)benzamide]",X,,Y,,> 90%,> 90%,X,Y
"CN(C)S(=O)(=O)c1c(F)c(F)c(F)c(F)c1C(=O)NCCCn1nc(-c2ccc(Oc3ccccc3)cc2)c2c(N)ncnc21 [Compound I-41, N-(3-(4-amino-3-(4-phenoxyphenyl)-1H-pyrazolo[3,4-d]pyrimidin-1-yl)propyl)-2-(N,N-dimethylsulfamoyl)-3,4,5,6-tetrafluorobenzamide]",X,,Y,,> 90%,> 90%,,Y
"Nc1ncnc2c1c(-c1ccc(Oc3ccccc3)cc1)nn2CCNC(=O)c1c(F)c(F)c(F)c(F)c1S(N)(=O)=O [Compound I-42, N-(2-(4-amino-3-(4-phenoxyphenyl)-1H-pyrazolo[3,4-d]pyrimidin-1-yl)ethyl)-2,3,4,5-tetrafluoro-6-sulfamoylbenzamide]",X,X,Y,Y,> 90%,> 90%,,
"CN(C)S(=O)(=O)c1c(F)c(F)c(F)c(F)c1C(=O)NCCNc1ncnc2[nH]ccc12 [Compound I-47, N-(2-((7H-pyrrolo[2,3-d]pyrimidin-4-yl)amino)ethyl)-2-(N,N-dimethylsulfamoyl)-3,4,5,6-tetrafluorobenzamide]",X,,Y,Y,< 50%,< 50%,,
NS(=O)(=O)c1c(F)c(F)c(F)c(F)c1C(=O)NCCNc1ncnc2[nH]ccc12 [Compound I-48],X,X,Y,Y,< 50%,< 50%,,
"CS(=O)(=O)c1c(F)c(F)c(F)c(F)c1CNCCNc1ncnc2[nH]ccc12 [Compound I-50, N^1-(7H-pyrrolo[2,3-d]pyrimidin-4-yl)-N2-(2,3,4,5-tetrafluoro-6-(methylsulfonyl)benzyl) ethane-1,2-diamine]",X,X,Y,,,,,
